Consider ten compounds from ChEMBL document CHEMBL1201862, “PubChem BioAssay data set” (2004).

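Growth conditions: 96-well plates. Treatment: test compound, 48 hours, 5 concentrations. Analysis: linear interpolation between bracketing concentrations; unreached endpoints set to highest concentration. At the GI50, growth is halved.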 Activity calls are given as the source filed them. Rule as the data show it: active = GI50 up to about 1.1 µM and inactive = higher.

Among the test systems are SW-620; HT-29; OVCAR-5; U-251; UACC-62; CCRF-CEM; OVCAR-8; SNB-75; HCT-116; UO-31; IGROV-1; SK-OV-3; HOP-62; SN12C; EKVX; SF-295; OVCAR-4; HL-60; LOX IMVI; SNB-19.
Common to all, as to experiment: NCI-60 cell line screen, 48 h

In the case of `c1ccc2c3c(ccc2c1)-c1[nH]ncc1CCO3`, the GI50 with SW-620 was 37.8 µM (inactive); with HT-29 it was 32.5 µM (inactive); in the test with OVCAR-5 it was 25.8 µM (inactive); in the test with U-251, 18.4 µM (inactive); in the test on UACC-62, 29.9 µM (inactive); in the test on CCRF-CEM, 32 µM (inactive). Also, the GI50 in the test on OVCAR-8 was 34.4 µM (inactive); in the test on SNB-75, 27.5 µM (inactive); in the test on HCT-116, 32.4 µM (inactive); with UO-31 it was 25.6 µM (inactive); in the test with IGROV-1, > 52 µM (inactive); in the test with SK-OV-3, 35.8 µM (inactive). Besides, the GI50 with HOP-62 is 30.6 µM (inactive); in the test with SN12C it was 29.2 µM (inactive); with EKVX it was 13.6 µM (inactive); in the test with SF-295, 28.4 µM (inactive); in the test with OVCAR-4, 29.7 µM (inactive); with HL-60, 14.6 µM (inactive). Besides, the GI50 was 33.1 µM (inactive) in the test on LOX IMVI and 47.1 µM (inactive) in the test on SNB-19.

As for `CCCN(CCC)c1cc2c(cc1F)c(=O)c(C(=O)O)cn2-c1ccc(N2CCN(C)CC2)cn1`, the GI50 was 16.2 µM (inactive) with SW-620; 14.7 µM (inactive) with HT-29; 18.8 µM (inactive) in the test on OVCAR-5; 25.5 µM (inactive) with U-251; 18.5 µM (inactive) in the test on UACC-62; 17.6 µM (inactive) in the test with CCRF-CEM. For the same compound, the GI50 with OVCAR-8 was 14.3 µM (inactive); with SNB-75 it was 14.7 µM (inactive); with HCT-116, 15.3 µM (inactive); with UO-31, 13.3 µM (inactive); with IGROV-1, 12.9 µM (inactive); with SK-OV-3, 14.3 µM (inactive). Further, the GI50 was 16.7 µM (inactive) with HOP-62; 22.5 µM (inactive) in the test on SN12C; 16.7 µM (inactive) with EKVX; 17.8 µM (inactive) with SF-295; 19.2 µM (inactive) in the test on OVCAR-4; 6.18 µM (inactive) with HL-60. Further, the GI50 is 3 µM (inactive) in the test on LOX IMVI and 15.3 µM (inactive) in the test on SNB-19.

For the compound `COC(=O)c1cccc(N[C@@H]2c3cc4c(cc3C(c3cc(OC)c(O)c(OC)c3)[C@H]3C(=O)OCC32)OCO4)c1` (stereo not given in full), the GI50 in the test with SW-620 was 1.97 µM (inactive); in the test with HT-29, 1.69 µM (inactive); with OVCAR-5 it was 6.67 µM (inactive); with U-251, 1.05 µM (active); in the test on UACC-62 it was 0.729 µM (active); with CCRF-CEM, 0.248 µM (active). In addition, the GI50 is 1.73 µM (inactive) with OVCAR-8; 1.87 µM (inactive) in the test on SNB-75; 0.682 µM (active) in the test on HCT-116; 0.718 µM (active) with UO-31; 3.13 µM (inactive) in the test with IGROV-1; 2.86 µM (inactive) in the test on SK-OV-3. Also, the GI50 is 0.239 µM (active) in the test on HOP-62; 1.45 µM (inactive) in the test with SN12C; 4.03 µM (inactive) in the test on EKVX; 0.543 µM (active) in the test on SF-295; 7.08 µM (inactive) in the test on OVCAR-4; 0.149 µM (active) in the test on HL-60. Further, the GI50 in the test on LOX IMVI is 0.859 µM (active); in the test with SNB-19 it was 0.755 µM (active).

In the case of `CN1CCC(C(O)(c2ccccc2)c2ccc(Br)cc2)CC1` (stereo not given), the GI50 with SW-620 was 21.4 µM (inactive); in the test with HT-29, 20 µM (inactive); in the test on OVCAR-5, 21.2 µM (inactive); in the test with U-251, 17.7 µM (inactive); in the test with UACC-62 it was 15.7 µM (inactive); in the test on CCRF-CEM, 30.5 µM (inactive). In addition, the GI50 was 50.2 µM (inactive) in the test on OVCAR-8; 16.6 µM (inactive) in the test on SNB-75; 18.8 µM (inactive) with HCT-116; 12.5 µM (inactive) in the test with UO-31; 25.9 µM (inactive) in the test on IGROV-1; 32.7 µM (inactive) in the test on SK-OV-3. Besides, the GI50 is 24.8 µM (inactive) in the test with HOP-62; 16.9 µM (inactive) in the test on SN12C; 28.8 µM (inactive) in the test with EKVX; 17.9 µM (inactive) in the test with SF-295; 22.7 µM (inactive) in the test with OVCAR-4; 20.4 µM (inactive) in the test on HL-60. The GI50 in the test with LOX IMVI is 15.8 µM (inactive); in the test with SNB-19, 45.2 µM (inactive).

Consider `COc1cc(O)c2c(=O)cc(C3(O)C=CC(=O)C=C3)oc2c1`, for which the GI50 in the test with SW-620 was < 0.0417 µM (active); in the test on HT-29, < 0.01 µM (active); in the test with U-251 it was < 0.0405 µM (active); in the test on UACC-62, 0.378 µM (active); with CCRF-CEM, < 0.01 µM (active); in the test on OVCAR-8, 0.0448 µM (active). The GI50 in the test on SNB-75 was 1.22 µM (inactive); in the test on HCT-116 it was 0.29 µM (active); with UO-31, 0.0733 µM (active); with IGROV-1, < 0.01 µM (active); with SK-OV-3, 2.37 µM (inactive); with HOP-62, 0.182 µM (active). For the same compound, the GI50 in the test with SN12C was 0.135 µM (active); in the test on EKVX, 1.36 µM (inactive); in the test on SF-295 it was 0.631 µM (active); with OVCAR-4 it was 0.393 µM (active); in the test with HL-60, < 0.01 µM (active); in the test with LOX IMVI, 0.041 µM (active). In addition, the GI50 in the test on SNB-19 is 6.93 µM (inactive).

As to `O=C(Cc1nc2ccc(C(=O)c3ccccc3)cc2nc1O)C(=O)Nc1nc2ccccc2[nH]1`, the GI50 in the test on SW-620 was 42.9 µM (inactive); with HT-29, 52.7 µM (inactive); in the test on UACC-62 it was 38.7 µM (inactive); with CCRF-CEM it was 38.3 µM (inactive); with OVCAR-8, 55.1 µM (inactive); with SNB-75 it was 31.7 µM (inactive). In addition, the GI50 in the test with HCT-116 is 51.6 µM (inactive); in the test with UO-31, 60.3 µM (inactive); with IGROV-1 it was 93.5 µM (inactive); in the test with SK-OV-3, > 100 µM (inactive); with HOP-62, 33.3 µM (inactive); in the test with SN12C, > 100 µM (inactive). For the same compound, the GI50 was > 100 µM (inactive) in the test on EKVX; 28.4 µM (inactive) with SF-295; 61.7 µM (inactive) in the test on OVCAR-4; 35.8 µM (inactive) in the test on HL-60; 44 µM (inactive) in the test with LOX IMVI; > 100 µM (inactive) with SNB-19.

Consider `CCOCNC(=O)N(COCC)COCC`, for which the GI50 with SW-620, in the test on HT-29, in the test with OVCAR-5, in the test on UACC-62, in the test with CCRF-CEM and in the test on OVCAR-8 was > 100 µM (inactive) each time. Moreover, the GI50 in the test on SNB-75, with HCT-116, in the test on UO-31, in the test with IGROV-1, in the test with SK-OV-3 and in the test on HOP-62 was > 100 µM (inactive) throughout. In addition, the GI50 with SN12C, in the test on EKVX, in the test with SF-295, in the test with HL-60, in the test with LOX IMVI and with SNB-19 was > 100 µM (inactive) in each case.

Regarding `COc1cccc(NC(=O)CSc2nnc(-c3ccc(NC(C)=O)cc3)o2)c1`, the GI50 with SW-620 is > 100 µM (inactive); with HT-29 it was 39.6 µM (inactive); in the test with OVCAR-5, 83.2 µM (inactive); in the test on U-251, > 100 µM (inactive); in the test with UACC-62, > 100 µM (inactive); with CCRF-CEM, 79.1 µM (inactive). The GI50 in the test on OVCAR-8 is > 100 µM (inactive); in the test on SNB-75, 30.5 µM (inactive); with HCT-116 it was > 100 µM (inactive); with UO-31, 80.4 µM (inactive); with IGROV-1, 50 µM (inactive); in the test with SK-OV-3, > 100 µM (inactive). Moreover, the GI50 with HOP-62, with SN12C, in the test with SF-295, in the test on OVCAR-4, in the test with HL-60 and in the test with LOX IMVI was > 100 µM (inactive) throughout.

`COc1cccc2c(Nc3ccc(S(=O)(=O)Nc4ncccn4)cc3)c3ccc([N+](=O)[O-])cc3nc12`: the GI50 in the test on SW-620 is 63.8 µM (inactive); with HT-29 it was 57.4 µM (inactive); in the test with OVCAR-5 it was > 100 µM (inactive); in the test on U-251, 48.5 µM (inactive); in the test with UACC-62, 9.12 µM (inactive); in the test with CCRF-CEM it was 9.82 µM (inactive). Moreover, the GI50 with HCT-116 was 22.4 µM (inactive); with UO-31, 5.66 µM (inactive); with IGROV-1, 4.13 µM (inactive); in the test with SK-OV-3, 54.6 µM (inactive); with HOP-62, 85.3 µM (inactive); with SN12C, 92.7 µM (inactive). Besides, the GI50 with EKVX is > 100 µM (inactive); in the test on SF-295 it was > 100 µM (inactive); with OVCAR-4 it was > 100 µM (inactive); with HL-60, 10.4 µM (inactive); with LOX IMVI it was 30.6 µM (inactive); in the test with SNB-19, > 100 µM (inactive).

`NC(C/C=C/P(=O)(O)O)C(=O)O` (stereo not given): the GI50 in the test with SW-620, in the test on HT-29, with OVCAR-5, with U-251, in the test with UACC-62 and in the test on CCRF-CEM was > 100 µM (inactive) each time. The GI50 with OVCAR-8 was > 100 µM (inactive); in the test on SNB-75 it was 14.1 µM (inactive); in the test with HCT-116 it was > 100 µM (inactive); with UO-31, > 100 µM (inactive); in the test on IGROV-1, > 100 µM (inactive); with SK-OV-3 it was > 100 µM (inactive). In addition, the GI50 in the test with SN12C, in the test with EKVX, in the test on SF-295, with OVCAR-4, with HL-60 and with LOX IMVI was > 100 µM (inactive) each time. For the same compound, the GI50 in the test with SNB-19 was > 100 µM (inactive).
